Results: patent US7456197B2, “Pyridinium cationic lipids as gene transfer agents” (The Texas A&M University System, priority 2003, dated 2008)

What was measured:
[1] = Cationic liposome size by dynamic light scattering; format: physicochemical
Protocol: The three series of cationic lipids newly synthesized were assessed for their transfection efficiency in vitro, using the experimental conditions optimized in a previous study.^23 Essentially the cationic lipids were mixed with cholesterol at a 1:1 molar ratio, dissolved in chloroform/methanol and dried under vacuum to generate a lipid film. The dried lipid film was hydrated with sterile phosphate buffer isotonic saline with pH=7.4 (PBS) and sonicated to yield cationic liposomes. The resulting liposomal solution was allowed to react with a DNA solution to form the final cationic lipid-DNA complexes (lipoplexes), which were assessed for transfection efficiency using different cell cultures. We used a pGL3 plasmid (Promega, Madison, Wisc.), encoding a firefly luciferase gene under the control of the constitutively active SV40 promoter as the reporter for the transfection efficiency. An optimal^23 electrostatic charge ratio cationic lipid/DNA of 2:1 was used in all preparations. […] The ability of these new cationic lipids to generate relatively small cationic liposomes could be attributed to the relatively large curvature radius induced in the bilayer by the bulky pyridinium cationic head.
Dioleoylphosphatidylethanolamine (DOPE), cholesterol (CHOL), N-(2,3-dioleoyloxypropyl)-N,N,N-trimethylammonium chloride (DOTAP) were commercial products. The purity of the lipids was checked by thin layer chromatography and also by differential scanning calorimetry (DSC), which was also used for determining the critical temperature Tc. For the preparation of the liposomes a protocol optimized for this type of compounds was adopted as follows. The cationic lipid (with or without helper lipid) was dissolved in chloroform/methanol (2/1, v/v) to reach a final concentration of 1 mM for the charged species. From this stock solution 50 μL were aliquoted in a 1 mL tube and the solvent was evaporated in a SpeedVac evaporator, under vacuum, for 1 h. The dried lipid film was prepared by removing the traces of organic solvent in a dessicator, over Drierite®, under vacuum, overnight. The film was hydrated with 500 μL sterile phosphate buffer saline (PBS) the tube was purged with sterile N2, and vortexed for 1 minute. The liposomes were generated by sonicating the tube in a water bath sonicator for 5-30 minutes at 62° C. and at 37° C. for DOTAP. After sonication the preparations were allowed to reach room temperature.

[2] = test system: breast carcinoma MDA-Mb231; assay: Luciferase (pGL3) transfection efficiency of lipoplexes, MDA-Mb231; format: cell-based; conditions: optimized lipoplexes, Chol 1:1, FIG. 7
Source text: It is well known that specific cell types and cell lines may vary in their ability to be transfected. In addition to the NCI-H23 lung cancer cell line, we therefore tested our optimized formulation of 5AMyr/Chol 1:1 versus DOTAP/Chol 1:1 as reference on four other cell lines from tumors representing cancers of great importance to human health, as well as different tissues of origin: breast carcinomas MCF-7, MDA-Mb231, prostate carcinoma DU-145 and glioma SWB-95 (FIG. 7).
Dioleoylphosphatidylethanolamine (DOPE), cholesterol (CHOL), N-(2,3-dioleoyloxypropyl)-N,N,N-trimethylammonium chloride (DOTAP) were commercial products. The purity of the lipids was checked by thin layer chromatography and also by differential scanning calorimetry (DSC), which was also used for determining the critical temperature Tc. For the preparation of the liposomes a protocol optimized for this type of compounds was adopted as follows. The cationic lipid (with or without helper lipid) was dissolved in chloroform/methanol (2/1, v/v) to reach a final concentration of 1 mM for the charged species. […]
For the luciferase assay, 20 μL of cell lysate was aliquoted in a test tube and assessed directly using a luciferase assay kit from Promega by means of a luminometer.
The protein content was quantified using a bicinchoninic acid (BCA) assay. […]

[3] = test system: lung cancer cell line NCI-H23; assay: Luciferase (pGL3) transfection efficiency of lipoplexes, NCI-H23; format: cell-based, human; conditions: exposure from one hour to three hours; data not shown

## CCCCCCCCCCCCCC(=O)OCC(COC(=O)CCCCCCCCCCCCC)[n+]1c(C)cc(C)cc1C.F[P-](F)(F)(F)(F)F [Lipid 5AMyr, 1-(1,3-dimyristoyloxypropane-2-yl)-2,4,6-trimethylpyridinium hexafluorophosphate]
[1]; cholesterol at 1:1 molar ratio to cationic lipid
  average size of the cationic vesicles: 95 nm
[1]; molar ratio of cholesterol to lipid halved
  average size of the cationic vesicles: 88 nm
[2]
  transfection efficiency (luciferase activity normalized for protein): 2950 RLU/μg of protein
[3]
  transfection efficiency on longer cell exposure to lipoplexes: higher transfection efficiencies
